{
  "source": "patent US7846434B2",
  "about": "“Materials and methods for improved immunoglycoproteins” (Trubion Pharmaceuticals, Inc., priority 2006, dated 2010)",
  "key": {"[1]": {"tested_on": "human CD16 (low affinity polymorphism), FcγRIIIa", "experiment": "Simultaneous binding of TRU-016 to CD37 (Daudi cells) and CD16:MuIgGFc fusion", "protocol": "TRU-016 produced as described in Example 8 was tested in the following assay, which simultaneously evaluates the ability of the TRU-016 binding domain to bind to a CD37 expressing target cell and the ability of the Fc portion of the TRU-016 SMIP to bind a fusion protein of human CD16 and murine IgG Fc.\nThe target cell utilized is the Daudi (ATCC CRL-213) cell line. Daudi cells are a human B-lymphoblastoid cell line derived from a Burkitt's lymphoma and express high levels of CD37. The custom soluble CD16:MuIgGFc fusion protein is human CD16 (low affinity polymorphism) linked to a murine IgG Fc.\nThe appropriate number of Daudi cells (350,000/well times the number of wells) is aliquoted and centrifuged at 250×g for 5 minutes at 15° C. The supernatant is removed. One percent cold paraformaldehyde is prepared by diluting the 4% stock from USB (USB US19943) 1:4 with FACS Buffer. FACS Buffer is prepared by adding 2% FBS (Gibco) to Dulbecco's PBS (Invitrogen) (v/v) and sterile filtering with a 0.22 μm filter. FACS Buffer is stored and used at 4° C. […]\nEach sample's bound fluorescence is measured on a BD FACSCalibur flow cytometry system and analyzed with Cell Quest Pro software (Becton Dickinson, ver 5.2). The GeoMean fluorescence intensity for each sample is plotted relative to the TRU-016 concentration. […]"}, "[2]": {"tested_on": "DG44 CHO cells transfected with TRU-016", "experiment": "Effect of castanospermine on DG44 CHO TRU-016 production, shake flasks", "format": "cell-based, Chinese hamster", "settings": "for Average TRU-016 Produced (ug/mL) ± SD: duplicate flasks", "protocol": "Prior to initiation of the experiments, DG44 CHO cells transfected with TRU-016 were grown in shake flasks in Ex-Cell™ 302 CHO serum-free media (SAFC Biosciences) supplemented with 1× non-essential amino acids (MediaTech), 1× sodium pyruvate (MediaTech), 4 mM L-glutamine (MediaTech), 500 nM methotrexate (MP Biomedicals) and 1 mg/L recombinant insulin (Recombulin-GIBCO/Invitrogen Corp.) at 37° C. and 5% carbon dioxide in a humidified incubator. A 200 mM stock concentration of castanospermine (Alexis Biochemicals) was prepared by dilution of the castanospermine in sterile, distilled/deionized water (MediaTech) and filtration through a 13 mm Acrodisc® with a 0.2 μm HT Tuffryn membrane (Pall Corporation). Stock solution was aliquoted into sterile, O-ringed, 0.5 mL microcentrifuge tubes (Fisherbrand, Fisher Scientific) and frozen at −20° C. Approximately 1 hour prior to initiation of experiments, needed aliquots were thawed at room temperature and the contents of each vial mixed well by vortexing.\nFor each experiment, cells in log phase growth were seeded in the above medium into a total volume of 60 mL in 250 mL shaker flasks at a density of 200,000 cells/mL and CS added at the concentration to be tested. Final CS concentrations of 800 μM, 400 μM, 200 μM, 100 μM, 50 μM, 25 μM and 0 μM were each tested in duplicate flasks. All cultures were incubated at 37° C. and 5% carbon dioxide in a humidified incubator and monitored at least every other day for viable cell density and overall cell viability.\nCultures were harvested on day 8 when overall cell viability was 50-70% (Expt. 1) and 30-50% (Expt. 2). Cells and cellular debris were removed by centrifugation in a Sorvall Super T21 at 3000 rpm for 20 minutes after which the supernatant was sterile filtered through a Millipore Steriflip unit with a 0.22 μm Millipore Express Plus membrane and stored at 2-8° C. until purification."}},
  "note": "Where “and” joins values, the source holds several entries; their conditions need not be identical. Identical values can stand only once.",
  "data": [
    {"smiles": "O[C@H]1[C@H](O)[C@@H](O)CN2CC[C@H](O)[C@H]12", "note": "[castanospermine]", "values": [
      {"measurement": "maximal improvement in TRU-016 glycovariant binding to CD16", "setting": "[1]; CHO-K1 produced, CS concentrations of 100 μM or greater", "result": "approximately 7 fold"},
      {"measurement": "binding to CD16 (GeoMean fluorescence, D-parameter) of DG44 CHO produced TRU-016", "setting": "[1]; relative to concentration of CS up to 400 μM, then levels off", "result": "dose-dependent binding response"},
      {"measurement": "Average TRU-016 Produced (ug/mL) ± SD", "setting": "[2]; CS 25 μM", "result": "180.31 ± 6.6", "unit": "µg/mL"},
      {"measurement": "ICA (Integral Cell Area)", "setting": "[2]; CS 25 μM, listed as CS", "result": "21.4 10^6 cells * days/mL and 21.1 10^6 cells * days/mL"},
      {"measurement": "Specific Productivity", "setting": "[2]; CS 25 μM, listed as CS", "result": "8.22 pg/cell/day and 8.78 pg/cell/day"},
      {"measurement": "Average TRU-016 Produced (ug/mL) ± SD", "setting": "[2]; CS 50 μM", "result": "176.63 ± 1.0", "unit": "µg/mL"},
      {"measurement": "ICA (Integral Cell Area)", "setting": "[2]; CS 50 μM, listed as CS", "result": "21.6 10^6 cells * days/mL and 21.4 10^6 cells * days/mL"},
      {"measurement": "Specific Productivity", "setting": "[2]; CS 50 μM, listed as CS", "result": "8.15 pg/cell/day and 8.27 pg/cell/day"},
      {"measurement": "ICA (Integral Cell Area)", "setting": "[2]; CS 100 μM", "result": "21.6 10^6 cells * days/mL"},
      {"measurement": "Average TRU-016 Produced (ug/mL) ± SD", "setting": "[2]; CS 100 μM", "result": "161.83 ± 0.1", "unit": "µg/mL"},
      {"measurement": "Specific Productivity", "setting": "[2]; CS 100 μM, listed as CS", "result": "7.48 pg/cell/day and 7.49 pg/cell/day"},
      {"measurement": "Average TRU-016 Produced (ug/mL) ± SD", "setting": "[2]; CS 200 μM", "result": "143.53 ± 1.4", "unit": "µg/mL"},
      {"measurement": "ICA (Integral Cell Area)", "setting": "[2]; CS 200 μM, listed as CS", "result": "21.9 10^6 cells * days/mL and 22.0 10^6 cells * days/mL"},
      {"measurement": "Specific Productivity", "setting": "[2]; CS 200 μM, listed as CS", "result": "6.60 pg/cell/day and 6.47 pg/cell/day"},
      {"measurement": "Specific Productivity", "setting": "[2]; CS 400 μM", "result": 5.48, "unit": "pg/cell/day"},
      {"measurement": "Average TRU-016 Produced (ug/mL) ± SD", "setting": "[2]; CS 400 μM", "result": "124.93 ± 1.4", "unit": "µg/mL"},
      {"measurement": "ICA (Integral Cell Area)", "setting": "[2]; CS 400 μM, listed as CS", "result": "23.0 10^6 cells * days/mL and 22.4 10^6 cells * days/mL"},
      {"measurement": "Specific Productivity", "setting": "[2]; CS 400 μM, listed as CS", "result": 5.53, "unit": "pg/cell/day"},
      {"measurement": "Average TRU-016 Produced (ug/mL) ± SD", "setting": "[2]; CS 800 μM", "result": "99.65 ± 6.1", "unit": "µg/mL"},
      {"measurement": "ICA (Integral Cell Area)", "setting": "[2]; CS 800 μM, listed as CS", "result": "23.9 10^6 cells * days/mL and 23.8 10^6 cells * days/mL"},
      {"measurement": "Specific Productivity", "setting": "[2]; CS 800 μM, listed as CS", "result": "3.99 pg/cell/day and 4.36 pg/cell/day"},
      {"measurement": "cell viability and growth (integral cell area)", "setting": "[2]; CS 25-800 μM", "result": "did not appear to be significantly affected"}
    ]}
  ]
}
